The source of these data is patent US20190151236A1, “LIPOSOMAL CORTICOSTEROIDS FOR TOPICAL INJECTION IN INFLAMED LESIONS OR AREAS” (ENCELADUS PHARMACEUTICALS B.V., priority 2016, published 2019).

Like-named read-outs stand apart in the source and are kept apart here.

One series has as its system cataract formation. Put plainly: Cataract formation on slit lamp biomicroscopy on day 31 (LOCS scale) in the rabbit uveitis study. Particulars: day 31, slit lamp, FIG. 4.

Description for cataract formation: Clinical examination was performed by 2 masked independent investigators. Slit-lamp biomicroscopy, measurement of intraocular pressure with the Tonopen, photography of the anterior segment and dilated fundal examination with binocular indirect ophthalmoscopy using a 20D lens were performed prior to uveitis induction and at 8 defined time points thereafter (Days 0, 1, 3, 4, 8, 9, 11, 16, 24 and 31). Clinical severity of uveitis was scored by evaluating anterior chamber cells/flares, vitreous haze, and iris vessels. […] The combined anterior segment inflammatory score was defined as the sum of the scores for iris vessels, anterior chamber cells and anterior chamber flare. The presence of cataract was determined on slit lamp biomicroscopy on day 31 and graded based on the LOCS scale.

As to `C[C@]12C=CC(=O)C=C1CC[C@@H]1[C@@H]2[C@@H](O)C[C@@]2(C)[C@H]1CC[C@]2(O)C(=O)COP(=O)(O)O` [Free PP, prednisolone phosphate], the “Combined anterior segment inflammatory score” value is recorded as 8.6 ± 0.5 in the series with experimental uveitis (Day 1 after 1st intravitreal induction, before intervention (baseline), mean ± SD, sum of iris congestion (0-3), anterior chamber cells (0-4), flare (0-3)); 8.0 ± 0.7 with experimental uveitis (Day 3, at intervention (baseline, maximum inflammation)); 6.0 ± 0.7 in the series with experimental uveitis (Day 4, one day after intervention (single 0.1 ml subconjunctival injection 4 mg/ml, or eye drops 4 drops per day)); 3.2 ± 0.4 in the series on experimental uveitis (Day 8, 5 days after intervention, before 2nd intravitreal induction); 8.0 ± 1.2 in the series with experimental uveitis (Day 9, 1 day after 2nd intravitreal induction); 7.0 ± 2.3 in the series on experimental uveitis (Day 11, 3 days after rechallenge of intravitreal TB antigen). In addition, the “Combined anterior segment inflammatory score” value with experimental uveitis (Day 16, 2 weeks post treatment) came to 5.4 ± 1.3; in the series with experimental uveitis (Day 24), 2.8 ± 0.4; in the series on experimental uveitis (Day 31), 2.2 ± 1.3. Further, the “Cataract formation (posterior subcapsular cataracts)” value in the series on cataract formation is reported as “trend towards higher rates”.
